Source: publication PMC11997890, “In Vivo and In Vitro Pharmacokinetic Studies of a Dual Topoisomerase I/II Inhibitor” (ACS Pharmacology & Translational Science, 2025)

Key:
human FMO3 = human FMO3 (Homo sapiens, UniProt P31513); test: Conversion of P8-D6 by recombinant FMO3; type: in vitro ADME; conditions: seven recombinant CYP isoenzymes and human FMO3
Procedure: P8-D6 N-oxide was the most common metabolite for all incubations with subcellular fractions from the homogenized tissue. According to the detected MS-MS fragments (supplied as Supporting Information Chapter 2), it resulted from N-oxygenation of the nitrogen at the side chain since the unmodified fragment of P8-DO (m/z = 414.1) was detected. Furthermore, the detected fragment at m/z = 440.1 is most likely a carbocation at the remaining ethyl chain after splitting off the dimethylamine N-oxide further strengthening the theory of selectively forming this specific N-oxide. In addition, no relevant chemical shifts in the aromatic range of the ^1H NMR compared to P8-D6 and mono were observed (supplied as Supporting Information Chapter 2). Thus, no chemical modifications can have occurred on the aromatic rings, and all changes must therefore affect the side chain. […] To determine which enzymes were responsible for the conversion, seven recombinant CYP 450 isoenzymes recommended by the FDA’s “Guidance for Industry” and human FMO3 were used.
For all phase I metabolism studies (except cell cultures), a 0.3 mL reaction mixture consisting of 1 mM substrate (P8-D6, P8-D6 mono, P8-D6 N-oxide), 1 mM NADPH as a cofactor, 0.67 mg/mL protein from homogenized tissue or subcellular fractions, respectively (except recombinant enzymes, where 0.5 mg/mL was used), and PBS buffer (pH 7.4) was used. […]

CYP2C9 = target: T1, CYP2C9 (Homo sapiens, UniProt P11712); test: In vitro CYP inhibition, marker substrate diclofenac; type: in vitro ADME
T1 construct: host or cells: human liver microsomes (one value) / recombinant CYP enzyme (other value)
T1 sequence (P11712 whole entry): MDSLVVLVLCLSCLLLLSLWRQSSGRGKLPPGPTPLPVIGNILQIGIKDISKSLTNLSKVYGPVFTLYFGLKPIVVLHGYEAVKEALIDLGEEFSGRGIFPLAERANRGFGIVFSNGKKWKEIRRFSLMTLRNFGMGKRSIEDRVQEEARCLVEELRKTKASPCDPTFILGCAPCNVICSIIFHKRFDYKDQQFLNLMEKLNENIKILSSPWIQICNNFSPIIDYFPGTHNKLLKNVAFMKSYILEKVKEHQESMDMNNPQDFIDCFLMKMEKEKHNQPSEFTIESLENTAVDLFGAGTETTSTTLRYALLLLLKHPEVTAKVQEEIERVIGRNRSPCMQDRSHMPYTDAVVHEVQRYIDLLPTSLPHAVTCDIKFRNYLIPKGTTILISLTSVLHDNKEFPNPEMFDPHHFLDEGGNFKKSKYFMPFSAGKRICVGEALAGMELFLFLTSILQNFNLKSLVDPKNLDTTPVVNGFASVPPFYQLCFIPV
Procedure: (§1) To assess metabolizing enzyme-mediated drug interactions, P8-D6 was incubated with human liver (HLM) or recombinant CYP enzymes and the respective marker substrate according to the FDA (with the exception of using amitriptyline instead of S-mephenytoin). −
(§2) However, as some conversions were catalyzed by several enzymes, the conversion rates in HLM increased (e.g., bupropion and diclofenac).
(§3) To examine a possible in vitro CYP inhibition, the following CYP enzymes and marker substrates were investigated according to the FDA: , phenacetin (CYP1A2), bupropion (CYP2B6), amodiaquine (CYP2C8), diclofenac (CYP2C9), amitriptyline (CYP2C19), dextromethorphan (CYP2D6), testosterone (CYP3A4), and nifedipine (CYP3A4). Incubation was performed in a 0.2 mL reaction mix consisting of PBS buffer (pH 7.4), 1 mM marker substrate, 1 mM NADPH, and either 0.5 mg/mL recombinant CYP enzyme or human liver microsomes. P8-D6 was added for a final concentration of 0.5 μM, 1 μM, 5 μM, 10 μM, 25 μM, 50 μM, 100 μM, 500 μM, 1000 μM, and (in some cases) 5000 μM. Sample preparation was performed according to in vitro biotransformation.

CYP2C8 = target: T2, CYP2C8 (Homo sapiens, UniProt P10632); test: In vitro CYP inhibition, marker substrate amodiaquine; type: in vitro ADME
T2 construct: host or cells: human liver microsomes (one value) / recombinant CYP enzyme (other value)
T2 sequence (P10632 whole entry): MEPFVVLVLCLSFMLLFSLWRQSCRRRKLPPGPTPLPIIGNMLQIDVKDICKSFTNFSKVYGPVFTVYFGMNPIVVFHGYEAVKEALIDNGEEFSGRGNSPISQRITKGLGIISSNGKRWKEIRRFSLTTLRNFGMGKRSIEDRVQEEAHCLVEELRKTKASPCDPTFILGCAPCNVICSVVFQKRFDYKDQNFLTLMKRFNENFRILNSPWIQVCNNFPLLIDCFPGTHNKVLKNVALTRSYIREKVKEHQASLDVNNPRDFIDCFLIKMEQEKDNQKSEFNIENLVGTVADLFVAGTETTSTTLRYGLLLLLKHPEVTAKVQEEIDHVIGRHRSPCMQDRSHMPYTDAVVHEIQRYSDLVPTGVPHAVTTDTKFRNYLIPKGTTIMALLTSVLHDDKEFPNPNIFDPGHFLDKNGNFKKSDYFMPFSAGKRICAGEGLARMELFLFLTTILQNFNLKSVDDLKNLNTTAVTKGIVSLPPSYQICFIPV
Procedure: as §1, §2, §3

γ-globulins = test: Binding to isolated plasma protein by ultrafiltration; set-up: species or system human
Procedure: To examine the effect of the P8-D6 plasma protein binding on the in vivo bioavailability, human and rat plasma was spiked in vitro and incubated with P8-D6. By using ultrafiltration to separate free P8-D6 from the protein-bound fraction, a plasma protein binding of 99% (Figure A) was estimated. However, neither human α-1-microglobulin (3.06%) nor human serum albumin (0.91%) is responsible for binding. According to initial findings, γ-globulins (94.59%), human transferrin (90.43%), LDL (87.99%), human α2-HS glycoprotein (85.29%), and human fibrinogen (78.89%) lead to binding of P8-D6.
To examine the extent of plasma protein binding, 150 μL of blank samples of human plasma (1 mM) and rat plasma (1 mM), human albumin (1 mM, #A1653, Merck KGaA, Darmstadt); human α1-acid glycoprotein (1 mM; #G9885, Merck KGaA, Darmstadt); human α2-HS-glycoprotein (0.1 mM; #G0516, Merck KGaA, Darmstadt); human transferrin (0.2 mM; #T8158, Merck KGaA, Darmstadt); human fibrinogen (0.2 mM; #F3879, Merck KGaA, Darmstadt); LDL (0.2 mM; […]); and human γ-globulin (1 mM; #G4386, Merck KGaA, Darmstadt) were spiked with P8-D6 in the same final concentration as the protein and incubated in a shaking water bath at 37 °C for 120 min. Afterward, the unbound fraction of P8-D6 was separated by ultrafiltration (Vivaspin 500 10 000 MWCO filter). The sample preparation was performed according to plasma samples. […]

P-GP (ABCB1) = target: T3, P-GP (ABCB1) (Homo sapiens, UniProt P08183); test: Transporter inhibition, calcein-AM accumulation in MDCK cells (P-GP overexpression); type: cell-based; conditions: intracellular accumulation of calcein-AM
T3 construct: expressed in transfected cells; host or cells: MDCK (Madin Darby canine kidney)
T3 sequence (P08183 whole entry, species assumed): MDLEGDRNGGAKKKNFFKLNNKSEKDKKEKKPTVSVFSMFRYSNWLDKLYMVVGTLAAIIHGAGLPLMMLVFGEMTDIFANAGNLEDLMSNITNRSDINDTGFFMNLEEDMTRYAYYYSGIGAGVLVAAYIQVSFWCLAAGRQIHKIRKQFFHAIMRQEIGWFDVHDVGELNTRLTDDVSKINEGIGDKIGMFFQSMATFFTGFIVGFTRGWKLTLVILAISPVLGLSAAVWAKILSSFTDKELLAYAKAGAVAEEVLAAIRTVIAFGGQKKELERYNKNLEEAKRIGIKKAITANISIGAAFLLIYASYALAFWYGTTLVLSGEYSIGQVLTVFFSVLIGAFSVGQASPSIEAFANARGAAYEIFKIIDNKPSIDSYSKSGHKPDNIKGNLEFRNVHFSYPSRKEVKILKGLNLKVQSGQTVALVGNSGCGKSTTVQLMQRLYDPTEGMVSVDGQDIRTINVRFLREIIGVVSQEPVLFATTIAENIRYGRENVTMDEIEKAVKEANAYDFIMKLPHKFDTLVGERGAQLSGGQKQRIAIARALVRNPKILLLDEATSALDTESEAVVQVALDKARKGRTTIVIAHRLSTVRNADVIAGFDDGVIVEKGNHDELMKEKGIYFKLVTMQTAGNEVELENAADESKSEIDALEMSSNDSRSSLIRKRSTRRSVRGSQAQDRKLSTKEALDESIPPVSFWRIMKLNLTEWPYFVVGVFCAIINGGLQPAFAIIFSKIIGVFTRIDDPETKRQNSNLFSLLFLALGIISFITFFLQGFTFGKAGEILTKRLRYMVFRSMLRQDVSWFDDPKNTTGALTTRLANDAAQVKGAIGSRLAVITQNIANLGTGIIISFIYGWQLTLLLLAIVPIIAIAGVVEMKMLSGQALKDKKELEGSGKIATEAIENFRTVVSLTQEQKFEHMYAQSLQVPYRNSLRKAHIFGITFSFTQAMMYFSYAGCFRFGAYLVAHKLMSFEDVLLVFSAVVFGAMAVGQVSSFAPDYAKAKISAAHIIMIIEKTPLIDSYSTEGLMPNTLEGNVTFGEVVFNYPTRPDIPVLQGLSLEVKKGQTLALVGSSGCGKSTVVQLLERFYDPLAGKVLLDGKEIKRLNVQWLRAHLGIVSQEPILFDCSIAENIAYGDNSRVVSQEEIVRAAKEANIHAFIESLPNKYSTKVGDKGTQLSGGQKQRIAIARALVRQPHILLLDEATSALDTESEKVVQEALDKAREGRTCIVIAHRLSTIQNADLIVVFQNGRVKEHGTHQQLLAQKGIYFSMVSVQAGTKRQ
Procedure: The inhibitory characteristics of P8-D6 on the classic efflux transporters P-GP and BCRP (ABCG2) were evaluated (Figure ).
A potential interaction of P8-D6 with the export protein P-GP (ABCB1) was evaluated in MDCK (P-GP overexpression) and MDCKII (BCRP overexpression) cells. P-GP interaction was determined by the measurement of calcein accumulation within the cells according to Bauer et al. Calcein-acetoxymethylester (calcein-AM) is a nonfluorescent, lipophilic and therefore highly cell-permeable ester. Once inside the cell, the ester bonds are rapidly cleaved by nonspecific esterases, generating highly fluorescent calcein, which is trapped inside the cell because of its hydrophilic nature. Because calcein-AM is a substrate for P-GP, inhibition of the transporter decreases efflux, which results in a higher intracellular fluorescence signal. […] Calcein-AM (MoBiTec, Göttingen, FRG) was added to a final concentration of 1 μM and incubated for 30 min at 37 °C. Afterward, the cells were immediately washed 3 times with ice-cold Krebs–Ringer buffer and lysed with 1% Triton X-100. […] Each determination was repeated 3 times in 2 experiments to ensure reproducibility. All fluorescence values were corrected by subtracting the background fluorescence.

Lipophilicity = type: physicochemical

Sequence of human FMO3 (P31513 whole entry, the tested form may be a part): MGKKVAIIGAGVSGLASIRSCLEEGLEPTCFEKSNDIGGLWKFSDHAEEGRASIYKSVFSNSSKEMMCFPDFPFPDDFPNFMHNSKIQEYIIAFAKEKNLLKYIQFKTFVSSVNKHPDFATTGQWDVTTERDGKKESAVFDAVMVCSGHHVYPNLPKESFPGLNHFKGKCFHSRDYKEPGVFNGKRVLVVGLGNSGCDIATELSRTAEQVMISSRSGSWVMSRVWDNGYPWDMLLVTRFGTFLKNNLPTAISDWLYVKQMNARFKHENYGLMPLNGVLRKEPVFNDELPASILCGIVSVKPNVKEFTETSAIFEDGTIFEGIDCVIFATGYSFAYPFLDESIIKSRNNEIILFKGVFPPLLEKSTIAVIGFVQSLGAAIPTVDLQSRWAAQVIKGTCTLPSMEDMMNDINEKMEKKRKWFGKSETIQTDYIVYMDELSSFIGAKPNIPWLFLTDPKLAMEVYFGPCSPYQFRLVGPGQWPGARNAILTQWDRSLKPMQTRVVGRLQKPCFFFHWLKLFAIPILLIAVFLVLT

| formation of metabolite from P8-D6 by recombinant enzymes (human FMO3) | SMILES | IC50 (CYP2C9; HLM) [µM] | IC50 (CYP2C9; recombinant CYP isoenzyme) [µM] | IC50 (CYP2C8; HLM) [µM] | IC50 (CYP2C8; recombinant CYP isoenzyme) [µM] | binding of P8-D6 (γ-globulins) [%] | IC50 (P-GP (ABCB1)) [µM] | logP (Lipophilicity) | logD (Lipophilicity; pH 7.4, read-out: log D7.4) |
| --- | --- | --- | --- | --- | --- | --- | --- | --- | --- |
| only with FMO3 | COc1cc(-c2cc3ccncc3c3nc(OCC[N+](C)(C)[O-])c4cnccc4c23)cc(OC)c1OC [P8-D6 N-oxide] |  |  |  |  |  |  |  |  |
|  | COc1cc(-c2cc3ccncc3c3nc(OCCN(C)C)c4cnccc4c23)cc(OC)c1OC [P8-D6, 6-(N,N-dimethyl-2-aminoethoxy)-11-(3,4,5-trimethoxyphenyl)-pyrido[3,4-c][1,9]-phenanthroline] | 162 | 71.4 | 246 | 282 | 94.59 | 20.6 | 2.9 | 3.7 |
